Legend:
CDK2/CycE = target: T1, CDK2/CycE (Homo sapiens, UniProt P24941); assay: CDK2/CycE kinase assay (TR-FRET); type: biochemical; settings: avg, read-out: CDK2 avg (IC50 [mol/l])
T1 construct: GST; purchased ProQinase GmbH (Freiburg, Germany); host or cells: insect cells (Sf9)
Summary of the method: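 GST-tagged human CDK2 and CycE from Sf9 cells, preincubated 15 min with compound, then 25 min at 22° C. with 10 μM ATP and 0.75 μM biotinylated Rb-derived peptide (final). Phospho-substrate read by TR-FRET (anti-pRB pSer807/pSer811, Eu anti-mouse IgG, streptavidin-XL665), 665/620 nm ratio, normalised to no-inhibitor and no-enzyme controls.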

[1] = system: human cervical tumor cell line HeLa (ATCC CCL-2); assay: SAC-Formation - Paclitaxel-Induced Assay; type: cell-based; settings: Homo sapiens, HeLa, 24 h, HeLa cells, paclitaxel 0.05 μM, test range 0.005 μM-20 μM, read-out: IC50 [mol/l] SAC-Formation - Paclitaxel-Induced Assay
Summary of the method: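 HeLa cells incubated overnight at 37° C, then given paclitaxel (0.05 μM final) plus test compound (0.005–20 μM, 0.5% DMSO) together for 24 h at 37° C. Fixed cells stained for phospho-histone H3 Ser10 (mitotic cells) and Hoechst 33342 (cell count); imaging-derived mitotic index fitted by four-parameter Hill equation.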

| SMILES | IC50 (CDK2/CycE) | IC50 [1] |
| --- | --- | --- |
| Cc1nsc(Nc2cnc3ccccc3n2)c1C(=O)Nc1ccc(NC2CCN(C(=O)OC(C)(C)C)CC2)nc1 [Example 234, tert-butyl 4-{[5-({[3-methyl-5-(quinoxalin-2-ylamino)-1,2-thiazol-4-yl]carbonyl}amino)pyridin-2-yl]amino}piperidine-1-carboxylate] | > 20 µM | 10 µM |
| COC(=O)c1cc(NC(=O)c2c(C)nsc2Nc2cnc3ccccc3n2)cc(C(=O)OC)c1 [Example 237, dimethyl 5-({[3-methyl-5-(quinoxalin-2-ylamino)-1,2-thiazol-4-yl]carbonyl}amino)isophthalate] | > 20 µM | 20 µM |
| Cc1nsc(Nc2cncc(C(F)(F)F)n2)c1C(=O)Nc1ccc(C(=O)NC2CCN(CC(F)F)CC2)cc1 [Example 225, N-N-(4-{[1-(2,2-difluoroethyl)piperidin-4-yl]carbamoyl}phenyl)-3-methyl-5-{[6-(trifluoromethyl)pyrazin-2-yl]amino}-1,2-thiazole-4-carboxamide] | > 20 µM | 0.57 µM |
| Cc1nsc(Nc2cnc3ccccc3n2)c1C(=O)Nc1cccc(NC(=O)OC(C)(C)C)c1 [Example 178, tert-butyl [3-({[3-methyl-5-(quinoxalin-2-ylamino)-1,2-thiazol-4-yl]carbonyl}amino)-phenyl]carbamate] | > 20 µM | 0.26 µM |
| Cc1nsc(Nc2cc(C#N)ccn2)c1C(=O)Nc1cccc(C(=O)NC2CC2)c1 [Example 175, 5-[(4-cyanopyridin-2-yl)amino]-N-[3-(cyclopropylcarbamoyl)phenyl]-3-methyl-1,2-thiazole-4-carboxamide] | > 20 µM | 2.6 µM |
| Cc1nsc(Nc2cnc(C(F)(F)F)cn2)c1C(=O)Nc1ccc(OC2CCN(C(=O)OC(C)(C)C)CC2)c(F)c1 [Example 217, tert-butyl 4-(2-fluoro-4-{[(3-methyl-5-{[5-(trifluoromethyl)pyrazin-2-yl]amino}-1,2-thiazol-4-yl)carbonyl]amino}phenoxy)piperidine-1-carboxylate] | > 20 µM | 0.41 µM |
| Cc1nsc(Nc2cnc(C(F)(F)F)cn2)c1C(=O)Nc1ccc(F)c(OC2CCN(C(=O)OC(C)(C)C)CC2)c1 [Example 229, tert-butyl 4-(2-fluoro-5-{[(3-methyl-5-{[5-(trifluoromethyl)pyrazin-2-yl]amino}-1,2-thiazol-4-yl)carbonyl]amino}phenoxy)piperidine-1-carboxylate] | > 20 µM | 0.36 µM |
| Cc1nsc(Nc2cncc(C(F)(F)F)n2)c1C(=O)Nc1ccc(OCCCN)nc1 [Example 209, N-[6-(3-aminopropoxy)pyridin-3-yl]-3-methyl-5-{[6-(trifluoromethyl)pyrazin-2-yl]amino}-1,2-thiazole-4-carboxamide] | > 20 µM | 2.3 µM |
| Cc1nsc(Nc2cnc(C(F)(F)F)cn2)c1C(=O)Nc1ccc(OCCNC(=O)OC(C)(C)C)c(F)c1 [Example 215, tert-butyl [2-(2-fluoro-4-{[(3-methyl-5-{[5-(trifluoromethyl)pyrazin-2-yl]amino}-1,2-thiazol-4-yl)carbonyl]amino}phenoxy)ethyl]carbamate] | > 20 µM | 0.072 µM |
| Cc1nsc(Nc2cc(C#N)ccn2)c1C(=O)Nc1ccc(Oc2cccc(C(F)(F)F)c2)nc1 [Example 230, 5-[(4-cyanopyridin-2-yl)amino]-3-methyl-N-{6-[3-(trifluoromethyl)phenoxy]pyridin-3-yl}-1,2-thiazole-4-carboxamide] | > 20 µM | 0.082 µM |
| Cc1nsc(Nc2cnc(C(F)(F)F)cn2)c1C(=O)Nc1ccc(OC2CCN(C)CC2)nc1 [Example 220, 3-methyl-N-{6-[(1-methylpiperidin-4-yl)oxy]pyridin-3-yl}-5-{[5-(trifluoromethyl)pyrazin-2-yl]amino}-1,2-thiazole-4-carboxamide] | > 20 µM | 0.97 µM |
| Cc1nsc(Nc2cnc3ccccc3n2)c1C(=O)Nc1ccc(C(=O)OC(C)(C)C)cc1 [Example 181, tert-butyl 4-({[3-methyl-5-(quinoxalin-2-ylamino)-1,2-thiazol-4-yl]carbonyl}amino)benzoate] | > 20 µM | 0.1 µM |
| CNS(=O)(=O)c1ccc(NC(=O)c2c(C)nsc2Nc2cncc(C(F)(F)F)n2)cc1 [Example 211, 3-methyl-N-[4-(methylsulfamoyl)phenyl]-5-{[6-(trifluoromethyl)pyrazin-2-yl]amino}-1,2-thiazole-4-carboxamide] | 15 µM | 0.047 µM |

The next lines start with the values.

| IC50 (CDK2/CycE) | IC50 [1] | SMILES |
| --- | --- | --- |
| > 20 µM | 0.048 µM | Cc1nsc(Nc2cnc(C(F)(F)F)cn2)c1C(=O)Nc1ccc(OCC2CCCN(C(=O)OC(C)(C)C)C2)nc1 (stereo not drawn) [Example 228, tert-butyl 3-{[(5-{[(3-methyl-5-{[5-(trifluoromethyl)pyrazin-2-yl]amino}-1,2-thiazol-4-yl)carbonyl]amino}pyridin-2-yl)oxy]methyl}piperidine-1-carboxylate] |
| > 20 µM | 0.82 µM | Cc1nsc(Nc2cncc(C(F)(F)F)n2)c1C(=O)Nc1ccc(C(=O)NC2CCN(C(=O)OC(C)(C)C)CC2)cc1 [Example 222, tert-butyl 4-[(4-{[(3-methyl-5-{[6-(trifluoromethyl)pyrazin-2-yl]amino}-1,2-thiazol-4-yl)carbonyl]amino}benzoyl)amino] piperidine-1-carboxylate] |
| > 20 µM | 0.24 µM | COC(=O)CCc1cccc(NC(=O)c2c(C)nsc2Nc2ccc(C#N)cn2)c1 [Example 176, methyl 3-{3-[({5-[(5-cyanopyridin-2-yl)amino]-3-methyl-1,2-thiazol-4-yl}carbonyl)amino]phenyl}propanoate] |
| > 20 µM | 1.2 µM | Cc1nsc(Nc2cc(C#N)ccn2)c1C(=O)Nc1ccc(OCCC(=O)OC(C)(C)C)nc1 [Example 200, tert-butyl 3-({5-[({5-[(4-cyanopyridin-2-yl)amino]-3-methyl-1,2-thiazol-4-yl}carbonyl)amino]pyridin-2-yl}oxy)propanoate] |
| > 20 µM | 0.089 µM | Cc1nsc(Nc2cncc(C(F)(F)F)n2)c1C(=O)Nc1ccc(OCCCNC(=O)OC(C)(C)C)nc1 [Example 190, tert-butyl {3-[(5-{[(3-methyl-5-{[6-(trifluoromethyl)pyrazin-2-yl]amino}-1,2-thiazoL-4-yl)carbonyl]amino}pyridin-2-yl)oxy]propyl}carbamate] |
| > 20 µM | 0.26 µM | Cc1nsc(Nc2cnc3ccccc3n2)c1C(=O)Nc1ccc(Oc2cccnc2)nc1 [Example 231, 3-methyl-N-[6-(pyridin-3-yloxy)pyridin-3-yl]-5-(quinoxalin-2-ylamino)-1,2-thiazole-4-carboxamide] |
| > 20 µM | 3.9 µM | Cc1nsc(Nc2cnc3ccccc3n2)c1C(=O)Nc1ccc(NCCNC(=O)OC(C)(C)C)nc1 [Example 244, tert-butyl (2-{[5-({[3-methyl-5-(quinoxalin-2-ylamino)-1,2-thiazol-4-yl]carbonyl}amino)pyridin-2-yl]amino}ethyl)carbamate] |
| > 20 µM | 0.18 µM | Cc1nsc(Nc2cncc(C(F)(F)F)n2)c1C(=O)Nc1ccc(OC2CCN(CC(F)F)CC2)c(F)c1 [Example 224, N-(4-{[1-(2,2-difluoroethyl)piperidin-4-yl]oxy}-3-fluorophenyl)-3-methyl-5-{[6-(trifluoromethyl)pyrazin-2-yl]amino}-1,2-thiazole-4-carboxamide] |
| > 20 µM | 0.74 µM | Cc1nsc(Nc2cnc3ccccc3n2)c1C(=O)Nc1ccc(OCCC(=O)OC(C)(C)C)nc1 [Example 198, tert-butyl 3-{[5-({[3-methyl-5-(quinoxalin-2-ylamino)-1,2-thiazol-4-yl]carbonyl}amino)pyridin-2-yl]oxy}propanoate] |
| ≥ 20 µM | 0.059 µM | Cc1nsc(Nc2cnc3ccccc3n2)c1C(=O)Nc1ccc(OC2CCN(C(=O)OC(C)(C)C)CC2)nc1 [Example 18, tert-Butyl 4-{[5-({[3-methyl-5-(quinoxalin-2-ylamino)-1,2-thiazol-4-yl]carbonyl}-amino)pyridin-2-yl]oxy}piperidine-1-carboxylate] |
| > 20 µM | 4.1 µM | Cc1nsc(Nc2cnc3ccccc3n2)c1C(=O)Nc1ccc(Oc2ccc(SC(F)(F)F)cc2)nc1 [Example 233, 3-methyl-5-(quinoxalin-2-ylamino)-N-(6-{4-[(trifluoromethyl)sulfanyl]phenoxy}pyridin-3-yl)-1,2-thiazole-4-carboxamide] |

Reference: patent publication US20170334899A1, “AMINO-SUBSTITUTED ISOTHIAZOLES” (Bayer Pharma Aktiengesellschaft, priority 2014, published 2017)
